# Measurements taken from article PMC9250534, “Synthesis and direct assay of large macrocycle diversities by combinatorial late-stage modification at picomole scale” (Nature Communications, 2022).
# Molecular target: MDM2 (Homo sapiens, UniProt Q00987)
# Experiment: MDM2 binding screen of Libraries 3 and 4: displacement of fluorescent probe F-M8 at 750 nM macrocycle
# Conditions: Panel b, Library 3: 63 scaffolds combinatorially acylated with 15 carboxylic acids at 30 picomole scale; displacement of fluorescent peptide probe; macrocycle 750 nM
# Procedure, shortened: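 Cyclic peptide scaffolds were acylated in DMSO with carboxylic acids (20 equiv.), HBTU and DABCO for 6 h at room temperature. Reactions were quenched overnight in 100 mM Tris-Cl pH 7.4, 0.01% Tween20. The fluorescein conjugate was also competed with nutlin-3a.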
# Sequence of MDM2 (Q00987 whole entry): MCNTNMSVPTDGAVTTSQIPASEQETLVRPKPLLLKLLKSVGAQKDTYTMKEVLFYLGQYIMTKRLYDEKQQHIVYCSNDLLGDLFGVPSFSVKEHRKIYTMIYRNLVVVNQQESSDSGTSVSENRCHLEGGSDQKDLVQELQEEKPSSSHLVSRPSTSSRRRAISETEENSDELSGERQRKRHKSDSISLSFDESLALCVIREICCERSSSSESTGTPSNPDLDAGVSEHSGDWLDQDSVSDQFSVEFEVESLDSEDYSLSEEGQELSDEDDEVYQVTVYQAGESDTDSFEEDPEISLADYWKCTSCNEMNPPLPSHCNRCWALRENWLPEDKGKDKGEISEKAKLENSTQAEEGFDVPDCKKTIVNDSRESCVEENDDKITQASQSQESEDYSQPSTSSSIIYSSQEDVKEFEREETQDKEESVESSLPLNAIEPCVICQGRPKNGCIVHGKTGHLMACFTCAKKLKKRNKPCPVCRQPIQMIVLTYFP
row,Structure (SMILES),fraction of fluorescent probe displaced
1,CN1C(=O)[C@H](CNC(=O)CCS(=O)(=O)c2ccccc2)NC(=O)[C@H]2CCCN(C2)C(=O)CCSSCCNC(=O)[C@@H]1Cc1c[nH]c2ccccc12 [X-Nip-Dap-NMe-Trp + Acid 114],0.021
2,CN1C(=O)[C@H](CNC(=O)C2COc3ccccc3O2)NC(=O)[C@H]2CCCN(C2)C(=O)CCSSCCNC(=O)[C@@H]1Cc1c[nH]c2ccccc12 (stereo partly drawn) [X-Nip-Dap-NMe-Trp + Acid 115],-0.012
3,O=C(NC[C@@H]1NC(=O)[C@H]2CCCN(C2)C(=O)CCSSCCNC(=O)[C@H](Cc2c[nH]c3ccccc23)NC1=O)c1ccc(Cl)s1 [X-Nip-Dap-Trp + Acid 14],0.208
4,O=C(NC[C@@H]1NC(=O)[C@H]2CCCN(C2)C(=O)CCSSCCNC(=O)[C@H](Cc2c[nH]c3ccccc23)NC1=O)c1ccc(Cl)cc1 [X-Nip-Dap-Trp + Acid 25],0.194
5,O=C(NC[C@@H]1NC(=O)[C@H]2CCCN(C2)C(=O)CCSSCCNC(=O)[C@H](Cc2c[nH]c3ccccc23)NC1=O)c1ccc2ccccc2c1 [X-Nip-Dap-Trp + Acid 107],0.440
6,O=C(/C=C/c1ccc(Cl)cc1)NC[C@@H]1NC(=O)[C@H]2CCCN(C2)C(=O)CCSSCCNC(=O)[C@H](Cc2c[nH]c3ccccc23)NC1=O [X-Nip-Dap-Trp + Acid 108],0.421
7,O=C(/C=C/c1ccc(OCc2ccccc2)cc1)NC[C@@H]1NC(=O)[C@H]2CCCN(C2)C(=O)CCSSCCNC(=O)[C@H](Cc2c[nH]c3ccccc23)NC1=O [X-Nip-Dap-Trp + Acid 110],0.015
8,O=C(/C=C/c1ccc2ccccc2c1)NC[C@@H]1NC(=O)[C@H]2CCCN(C2)C(=O)CCSSCCNC(=O)[C@H](Cc2c[nH]c3ccccc23)NC1=O [X-Nip-Dap-Trp + Acid 112],0.574
9,O=C(CCS(=O)(=O)c1ccccc1)NC[C@@H]1NC(=O)[C@H]2CCCN(C2)C(=O)CCSSCCNC(=O)[C@H](Cc2c[nH]c3ccccc23)NC1=O [X-Nip-Dap-Trp + Acid 114],-0.012
10,O=C(/C=C/c1ccc(Cl)cc1)NCCN1CC(=O)N[C@@H](Cc2cccc3ccccc23)C(=O)NCCSSCCC(=O)N2CCC[C@@H](C2)C1=O [X-Nip-N-Aeg-1-NaI + Acid 108],0.021
11,O=C(/C=C/c1ccc(OCc2ccccc2)cc1)NCCN1CC(=O)N[C@@H](Cc2cccc3ccccc23)C(=O)NCCSSCCC(=O)N2CCC[C@@H](C2)C1=O [X-Nip-N-Aeg-1-NaI + Acid 110],-0.00533
12,O=C1CN(CCNC(=O)c2cccc(Oc3ccccc3)c2)C(=O)[C@H]2CCCN(C2)C(=O)CCSSCCNC(=O)[C@H](Cc2cccc3ccccc23)N1 [X-Nip-N-Aeg-1-NaI + Acid 111],0.035
13,O=C(/C=C/c1ccc2ccccc2c1)NCCN1CC(=O)N[C@@H](Cc2cccc3ccccc23)C(=O)NCCSSCCC(=O)N2CCC[C@@H](C2)C1=O [X-Nip-N-Aeg-1-NaI + Acid 112],0.015
14,O=C(CCS(=O)(=O)c1ccccc1)NCCN1CC(=O)N[C@@H](Cc2cccc3ccccc23)C(=O)NCCSSCCC(=O)N2CCC[C@@H](C2)C1=O [X-Nip-N-Aeg-1-NaI + Acid 114],0.008
15,O=C1CN(CCNC(=O)c2ccc(Cl)cc2)C(=O)[C@H]2CCCN(C2)C(=O)CCSSCCNC(=O)[C@H](Cc2ccc3ccccc3c2)N1 [X-Nip-N-Aeg-2-Nal + Acid 25],0.00133
16,O=C1CN(CCNC(=O)c2ccc3ccccc3c2)C(=O)[C@H]2CCCN(C2)C(=O)CCSSCCNC(=O)[C@H](Cc2ccc3ccccc3c2)N1 [X-Nip-N-Aeg-2-Nal + Acid 107],0.011
17,O=C(/C=C/c1ccc(OCc2ccccc2)cc1)NCCN1CC(=O)N[C@@H](Cc2ccc3ccccc3c2)C(=O)NCCSSCCC(=O)N2CCC[C@@H](C2)C1=O [X-Nip-N-Aeg-2-Nal + Acid 110],0.035
18,O=C1CN(CCNC(=O)c2cccc(Oc3ccccc3)c2)C(=O)[C@H]2CCCN(C2)C(=O)CCSSCCNC(=O)[C@H](Cc2ccc3ccccc3c2)N1 [X-Nip-N-Aeg-2-Nal + Acid 111],0.00133

# Next, values leading:
row,fraction of fluorescent probe displaced,Structure (SMILES)
1,0.00133,CC(Oc1cccc(Cl)c1)C(=O)NCCN1CC(=O)N[C@@H](Cc2ccc3ccccc3c2)C(=O)NCCSSCCC(=O)N2CCC[C@@H](C2)C1=O (stereo partly shown) [X-Nip-N-Aeg-2-Nal + Acid 113]
2,0.015,O=C(CCS(=O)(=O)c1ccccc1)NCCN1CC(=O)N[C@@H](Cc2ccc3ccccc3c2)C(=O)NCCSSCCC(=O)N2CCC[C@@H](C2)C1=O [X-Nip-N-Aeg-2-Nal + Acid 114]
3,-0.00533,O=C1CN(CCNC(=O)c2cccc(Oc3ccccc3)c2)C(=O)[C@H]2CCCN(C2)C(=O)CCSSCCNC(=O)[C@H](Cc2c[nH]c3cc(Cl)ccc23)N1 [X-Nip-N-Aeg-Cl-Trp + Acid 111]
4,0.00133,O=C(/C=C/c1ccc2ccccc2c1)NCCN1CC(=O)N[C@@H](Cc2c[nH]c3cc(Cl)ccc23)C(=O)NCCSSCCC(=O)N2CCC[C@@H](C2)C1=O [X-Nip-N-Aeg-Cl-Trp + Acid 112]
5,-0.019,CC(Oc1cccc(Cl)c1)C(=O)NCCN1CC(=O)N[C@@H](Cc2c[nH]c3cc(Cl)ccc23)C(=O)NCCSSCCC(=O)N2CCC[C@@H](C2)C1=O (stereo partly shown) [X-Nip-N-Aeg-Cl-Trp + Acid 113]
6,0.055,O=C(/C=C/c1ccc2ccccc2c1)NCCN1CC(=O)N[C@H](Cc2c[nH]c3ccccc23)C(=O)NCCSSCCC(=O)N2CCC[C@@H](C2)C1=O [X-Nip-N-Aeg-D-Trp + Acid 112]
7,-0.012,Cn1cc(C[C@@H]2NC(=O)CN(CCNC(=O)c3ccc(Cl)s3)C(=O)[C@H]3CCCN(C3)C(=O)CCSSCCNC2=O)c2ccccc21 [X-Nip-N-Aeg-Me-Trp + Acid 14]
8,0.011,Cn1cc(C[C@@H]2NC(=O)CN(CCNC(=O)c3ccc4ccccc4c3)C(=O)[C@H]3CCCN(C3)C(=O)CCSSCCNC2=O)c2ccccc21 [X-Nip-N-Aeg-Me-Trp + Acid 107]
9,0.00133,Cn1cc(C[C@@H]2NC(=O)CN(CCNC(=O)/C=C/c3ccc(OCc4ccccc4)cc3)C(=O)[C@H]3CCCN(C3)C(=O)CCSSCCNC2=O)c2ccccc21 [X-Nip-N-Aeg-Me-Trp + Acid 110]
10,0.008,CC(Oc1cccc(Cl)c1)C(=O)NCCN1CC(=O)N[C@@H](Cc2cn(C)c3ccccc23)C(=O)NCCSSCCC(=O)N2CCC[C@@H](C2)C1=O (stereo partly shown) [X-Nip-N-Aeg-Me-Trp + Acid 113]
11,0.00133,Cn1cc(C[C@@H]2NC(=O)CN(CCNC(=O)CCS(=O)(=O)c3ccccc3)C(=O)[C@H]3CCCN(C3)C(=O)CCSSCCNC2=O)c2ccccc21 [X-Nip-N-Aeg-Me-Trp + Acid 114]
12,0.00133,CN1C(=O)CN(CCNC(=O)c2ccc(Cl)s2)C(=O)[C@H]2CCCN(C2)C(=O)CCSSCCNC(=O)[C@@H]1Cc1c[nH]c2ccccc12 [X-Nip-N-Aeg-NMe-Trp + Acid 14]
13,0.028,CN1C(=O)CN(CCNC(=O)/C=C/c2ccc(Cl)cc2)C(=O)[C@H]2CCCN(C2)C(=O)CCSSCCNC(=O)[C@@H]1Cc1c[nH]c2ccccc12 [X-Nip-N-Aeg-NMe-Trp + Acid 108]
14,-0.012,CN1C(=O)CN(CCNC(=O)c2cccc(Oc3ccccc3)c2)C(=O)[C@H]2CCCN(C2)C(=O)CCSSCCNC(=O)[C@@H]1Cc1c[nH]c2ccccc12 [X-Nip-N-Aeg-NMe-Trp + Acid 111]
15,-0.00533,CN1C(=O)CN(CCNC(=O)CCS(=O)(=O)c2ccccc2)C(=O)[C@H]2CCCN(C2)C(=O)CCSSCCNC(=O)[C@@H]1Cc1c[nH]c2ccccc12 [X-Nip-N-Aeg-NMe-Trp + Acid 114]
16,-0.00533,O=C1CN(CCNC(=O)c2ccc(Cl)s2)C(=O)[C@H]2CCCN(C2)C(=O)CCSSCCNC(=O)[C@H](Cc2c[nH]c3ccccc23)N1 [X-Nip-N-Aeg-Trp + Acid 14]

# Same assay, conditions: Panel c, Library 4: best nine scaffolds and 15 additional carboxylic acids; displacement of fluorescent probe
row,fraction of fluorescent probe displaced,Structure (SMILES)
1,0.443,O=C(/C=C/c1ccc(F)cc1)NC[C@@H]1NC(=O)[C@H]2CCCN(C2)C(=O)CCSSCCNC(=O)[C@H](Cc2c[nH]c3ccccc23)NC1=O [X-Nip-Dap-Trp + Acid 116]
2,0.533,CCOc1ccc(/C=C/C(=O)NC[C@@H]2NC(=O)[C@H]3CCCN(C3)C(=O)CCSSCCNC(=O)[C@H](Cc3c[nH]c4ccccc34)NC2=O)cc1 [X-Nip-Dap-Trp + Acid 117]
3,0.435,CCCOc1ccc(/C=C/C(=O)NC[C@@H]2NC(=O)[C@H]3CCCN(C3)C(=O)CCSSCCNC(=O)[C@H](Cc3c[nH]c4ccccc34)NC2=O)cc1 [X-Nip-Dap-Trp + Acid 118]
4,0.435,O=C(/C=C/c1ccc(Cl)c(Cl)c1)NC[C@@H]1NC(=O)[C@H]2CCCN(C2)C(=O)CCSSCCNC(=O)[C@H](Cc2c[nH]c3ccccc23)NC1=O [X-Nip-Dap-Trp + Acid 119]
5,0.468,O=C(/C=C/c1cccc(Cl)c1)NC[C@@H]1NC(=O)[C@H]2CCCN(C2)C(=O)CCSSCCNC(=O)[C@H](Cc2c[nH]c3ccccc23)NC1=O [X-Nip-Dap-Trp + Acid 121]
6,0.395,O=C(/C=C/c1cccc(C(F)(F)F)c1)NC[C@@H]1NC(=O)[C@H]2CCCN(C2)C(=O)CCSSCCNC(=O)[C@H](Cc2c[nH]c3ccccc23)NC1=O [X-Nip-Dap-Trp + Acid 122]
7,0.044,CC(=Cc1ccccc1)C(=O)NCC1NC(=O)C2CCCN(C2)C(=O)CCSSCCNC(=O)C(Cc2c[nH]c3ccccc23)NC1=O (stereo not drawn) [X-Nip-Dap-Trp + Acid 123]
8,0.313,CC(C)c1ccc(C=CC(=O)NCC2NC(=O)C3CCCN(C3)C(=O)CCSSCCNC(=O)C(Cc3c[nH]c4ccccc34)NC2=O)cc1 (stereo not drawn) [X-Nip-Dap-Trp + Acid 127]
9,0.036,O=C(NC[C@@H]1NC(=O)[C@H]2CCCN(C2)C(=O)CCSSCCNC(=O)[C@H](Cc2c[nH]c3ccccc23)NC1=O)c1cnc2ccccc2n1 [X-Nip-Dap-Trp + Acid 130]
